We go through 2 compounds from patent US11407725B2 (The Board of Trustees of the University of Illinois, priority 2018, dated 2022).

Data set [1] has as its target T1, ALDH1A3 (Homo sapiens, UniProt P47895).
T1 construct: made in house
T1 sequence (P47895 1-512): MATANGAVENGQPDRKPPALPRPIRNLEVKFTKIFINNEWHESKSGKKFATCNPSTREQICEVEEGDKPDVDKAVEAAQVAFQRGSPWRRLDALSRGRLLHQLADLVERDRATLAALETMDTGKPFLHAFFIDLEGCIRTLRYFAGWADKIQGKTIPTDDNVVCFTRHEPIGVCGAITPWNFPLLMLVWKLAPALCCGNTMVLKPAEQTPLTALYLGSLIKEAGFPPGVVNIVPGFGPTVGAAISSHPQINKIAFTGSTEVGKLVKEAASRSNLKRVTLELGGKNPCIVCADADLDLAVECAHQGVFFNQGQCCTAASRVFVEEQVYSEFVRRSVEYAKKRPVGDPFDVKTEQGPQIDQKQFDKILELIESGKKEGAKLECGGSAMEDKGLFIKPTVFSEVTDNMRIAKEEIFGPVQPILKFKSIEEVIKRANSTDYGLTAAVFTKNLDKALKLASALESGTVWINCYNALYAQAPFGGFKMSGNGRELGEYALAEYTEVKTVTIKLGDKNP
In words: ALDH isoform selectivity of red probes: ALDH1A3. Type of data set: biochemical. As to the method:
Each ALDH isoform was added to a 50 mM triethanolamine solution (pH 7.4) containing 2.0 mM NAD^+ and 100 μM substrate at room temperature. Benzaldehyde was the substrate for ALDH3A1. Propanal was the substrate for all other isoforms. ALDH isoform activity was determined by monitoring the rate of NADH production through the increase in absorbance at 340 nm (ε=6220 M^−1cm^−1). For these assays, 1 unit is defined as the amount of enzyme that catalyzes the conversion of […] per minute. For every combination of dye and enzyme, 2 μM dye was preincubated with 2.0 mM NAD^+ in 50 mM triethanolamine solution (pH 7.4). The reaction was initiated by addition of 1 unit of ALDH. Dyes were excited at 590 nm, and fluorescence was measured continuously at 610 nm.

Data set [2] relates to A549 cells. In words: Flow cytometry of A549 cells with red-AlDeSense. Type of data set: cell-based. As to the method: (§1) For all cell lines, 200,000 cells in a single-cell suspension were transferred into 1.5 mL Eppendorf tubes. Cells were pelleted by centrifugation at 400 g for 5 minutes at room temperature. After removing the supernatant by aspiration, cells were resuspended in 300 μL premixed PBS supplemented with verapamil, probenecid, and novobiocin. […] Samples were immediately stored on ice. Cells were stained with red-AlDeSense or Ctrl-red-AlDeSense (100 μL of 4 μM dye solution; dyes were normalized by fluorescence spectroscopy). Samples were analyzed on a BD LSR II Flow Cytometry Analyzer using a 488 nm laser and a 550 LP and 610/30 filter set. Samples were analyzed every 5 minutes for 15 minutes, with the samples being placed back on ice between data collection. Data were analyzed on FCS Express 6.04.
Background: In flow cytometry, cells or beads pass a laser one at a time.

Data set [3] has as its system K562 cells. In words: Flow cytometry of K562 cells with red-AlDeSense. Conditions: 1 μM dye. The data set is classed as cell-based, human. How it is done:
as §1

The subject of data set [4] is A549 cells. Description: Confocal imaging of A549 cells with red-AlDeSense. The data set is classed as cell-based. The settings on record: 1 μM dye. As to the method:
Nunc™ Lab-Tek™ 8-well Chamber Coverglass (Thermo Fisher) were coated with poly-L-lysine (Trevigen). For cells that were also stained with an antibody, 2,000,000 cells were transferred to an Eppendorf tube. The cells were resuspended in 200 μL of antibody buffer (5% BSA and 1 mg/mL NaN3 in PBS) and treated with 2 μL FITC-labeled anti-CD44 antibody (10 mg/mL, Sino Biological) and left on ice for 20 minutes. In all cases, cells were added at 150,000 cells/well to the coated slides 1 hour prior to imaging. […] Cells were treated with 100 uL red-AlDeSense or Ctrl-red-AlDeSense solution (4 μM dye in imaging buffer; dyes were normalized by fluorescence spectroscopy) and 0.8 μL Hoescht 33342 (5 mg/mL in PBS) for 10 minutes. […] Hoescht 33342 was excited with a 405 nm laser and detected with a 415-502 filter set. FITC was excited with a 488 nm laser and detected with a 502-561 filter set. […] was excited with a 594 nm laser and detected with a 600-735 filter set. […] Images were analyzed using ZEN 3.0 (blue edition) software. Mean fluorescence for the FITC-labeled anti-CD44 antibody was multiplied by the cell diameter to account for its 1-dimensional cell membrane staining, as opposed to 2-dimensional intracellular staining of (Ctrl-)red-AlDeSense.

The test system of data set [5] is MDA-MB-231 mammospheres. In words: Mammosphere culture and imaging. Type of data set: cell-based. Conditions: 2 μM dye. As to the method:
Mammosphere formation from MDA-MB-231 breast cancer cells was performed as described previously with some modifications. Cells were resuspended and diluted to a density of 2000 cells/mL in DMEM/F12 (Sigma-Aldrich) supplemented with 2% B27 supplement (Thermo Fisher), 40 ng/mL rhFGF-2 (Miltenyi Biotec), and 20 ng/mL rhEGF (Gibco®). They were plated in ultra-low attachment 6-well plates (Corning) and incubated at 37° C. and 5% CO2 for 5 days or until most mammospheres were between […]. At this point, the mammospheres were transferred to a 4-well chamber slide coated with Poly-L-lysine as described previously. The mammospheres were then either immediately imaged with AlDeSense or Ctrl-AlDeSense, or the media was exchanged with full DMEM media supplement with 10% FBS and non-essential amino acids to allow differentiation over 36 hours.
At various time points, the mammospheres were stained with 2 μM AlDeSense or Ctrl-AlDeSense as described above. Staining continued for 1 h at room temperature before imaging with a wide field fluorescence microscope (Zeiss Axiovert 200M). A GFP filter set was used to excite the fluorophores. Exposure times were set equally for all images taken within a data set and configured to give low signal in Ctrl-AlDeSense stained tumorspheres. Only mammospheres greater than 50 μm in diameter were considered in the analysis.

Data set [6] in a line: pKa determination (pH profile of fluorescence). The settings on record: 40 mM Britton-Robinson buffer.
Protocol: The fluorescence of 1 μM of each compound was measured in 40 mM Britton-Robinson buffer at pH 2-9 in 0.5 pH intervals. Each measurement was performed in triplicate. […] Error bars are ±standard deviation (SD).

Take `Cc1cc(C=O)c(F)c(F)c1C1=C2C=CC(=O)C=C2[Si](C)(C)c2cc(O)ccc21`: the “selectivity ALDH1A1 versus ALDH1A3” value in data set [1] is “selective for ALDH1A1 over ALDH1A3”. Besides, the “Enzyme Activity 1A3” value in data set [1] (Table 2) is recorded as “Low”. The “extent of red-AlDeSense activation with DEAB” value in data set [2] (A549 cells, plus 20 μM DEAB) is 67.8±3.4%. In data set [2] (flow cytometry, 1 μM dye), the “A549 cells displaying high ALDH1A1 activity” value came out at 78.1±0.3%. In addition, in data set [3], the “K562 cells with high ALDH1A1 activity” value is 39.0±8.3%. In addition, in data set [4], the “A549 cells with high ALDH1A1 activity by confocal microscopy” value was 77.6%.
`Cc1cc(C=O)ccc1-c1c2cc(F)c(=O)cc-2oc2cc(O)c(F)cc12` [AlDeSense]: the “brightness of mammospheres versus Ctrl-AlDeSense” value in data set [5] is reported as 3 fold. Moreover, the pKa (usually the pH at which an ionisable group is half protonated) in data set [6] amounted to 4.81.
